Patent US20260062420A1, “NOVEL DPP1 INHIBITORS AND USES THEREOF” (Insmed Incorporated, priority 2022, published 2026)
Where two headings read alike, the source gives them in different places.

Experiments:
active mouse DPP1 enzyme = active mouse DPP1 enzyme (Mus musculus (Mouse), UniProt P97821); assay: Mouse DPP1 Enzyme IC50 Assay; assay type: biochemical
Description: Test articles were applied to active mouse DPP1 enzyme (R&D Systems; Minneapolis, MN) in Assay Buffer (50 mM MES pH 5.5, 50 mM NaCl, 5 mM DTT) in a total reaction volume of 125 μL. 25 μL of compound in Assay Buffer plus 5% DMSO was first added to 50 μL of active mouse DPP1 enzyme at a concentration of 62.5 pg/μL and allowed to pre-incubate for 10 minutes at 37° C. after which 50 μL of 1000 μM H-Gly-Arg-AMC substrate (Bachem; St. Torrance, CA) was added, giving final substrate concentration of 400 μM and a final DMSO concentration of 1%. Substrate cleavage was measured for 90 minutes at 37° C., with fluorescence at Excitation/Emission 350/450 nm measured every 5 minutes. DPP1 concentration was interpolated based on its activity relative to a standard curve of recombinant active mouse DPP1 enzyme. IC50 values for each compound were calculated via the XLFit (IDBS Version 5.3.1.3) Add-On to Microsoft Excel using the four parameter fit equation y=(A+((B−A)/(1+((C/x)^D)))), which appears as equation number 205 (4 Parameter Logistic Model or Sigmoidal Dose-Response Model) in XLFit. Default constraints were used for each Parameter. IC50 was defined as the compound concentration at which 50% of enzyme activity was inhibited when compared to the no-compound control.

[1] = target: Recombinant human DPP1 enzyme (Homo sapiens (Human), UniProt P53634); assay: Human DPP1 Enzyme IC50 Assay; assay type: biochemical
Chain of Recombinant human DPP1 enzyme (P53634 25-134): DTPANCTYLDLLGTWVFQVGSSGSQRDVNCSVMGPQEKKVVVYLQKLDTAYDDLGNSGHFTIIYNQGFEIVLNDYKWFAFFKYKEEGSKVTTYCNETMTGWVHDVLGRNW
Chain of Recombinant human DPP1 enzyme (P53634 231-394): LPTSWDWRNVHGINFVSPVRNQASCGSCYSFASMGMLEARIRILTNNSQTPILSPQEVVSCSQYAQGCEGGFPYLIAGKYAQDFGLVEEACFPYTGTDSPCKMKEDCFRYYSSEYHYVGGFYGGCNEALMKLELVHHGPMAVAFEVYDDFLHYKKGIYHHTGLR
Chain of Recombinant human DPP1 enzyme (P53634 395-463): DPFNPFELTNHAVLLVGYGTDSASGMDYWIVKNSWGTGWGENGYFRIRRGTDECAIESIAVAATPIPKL
Description: Recombinant human DPP1 enzyme (R&D Systems; Minneapolis, MN) was first proteolytically processed into its mature form using recombinant human cathepsin L (R&D Systems) in a buffer consisting of 20 mM citric acid pH 4.5, 150 mM NaCl, 1 mM EDTA and 10 mM DTT. Test articles were applied to activated human DPP1 enzyme in Assay Buffer (25 mM MES pH 6.0, 50 mM NaCl, 5 mM DTT) in a total reaction volume of 125 μL. 25 μL of compound in Assay Buffer plus 5% DMSO was first added to 50 μL of activated human DPP1 enzyme at a concentration of 1 ng/μL and allowed to pre-incubate for 10 minutes at 37° C. after which 50 μL of 1000 μM H-Gly-Arg-AMC substrate (Bachem; St. Torrance, CA) was added, giving final substrate concentration of 400 μM and a final DMSO concentration of 1%. Substrate cleavage was measured for 90 minutes at 37° C., with fluorescence at Excitation/Emission 350/450 nm measured every 5 minutes. DPP1 concentration was interpolated based on its activity relative to a standard curve of activated human recombinant DPP1 enzyme. IC50 values for each compound were calculated via the XLFit (IDBS Version 5.3.1.3) Add-On to Microsoft Excel using the four parameter fit equation y={A+[(B−A)]/[1+((C/x)^D)]}, which appears as equation number 205 (4 Parameter Logistic Model or Sigmoidal Dose-Response Model) in XLFit. Default constraints were used for each Parameter.

DPP1 in HL-60 cells = DPP1 in HL-60 cells (Homo sapiens (Human), UniProt P53634); assay: DPP1 Cell IC50 Assay (HL-60 cells, H-Gly-Phe-AFC substrate); assay type: cell-based
Chain of DPP1 in HL-60 cells (P53634 25-134): as the sequence (P53634 25-134) above
Chain of DPP1 in HL-60 cells (P53634 231-394): as the sequence (P53634 231-394) above
Chain of DPP1 in HL-60 cells (P53634 395-463): as the sequence (P53634 395-463) above
Description: HL-60 cells (ATCC; Manassas, VA) were maintained in RPMI-1640 supplemented with 20% heat-inactivated FBS and 1× Antibiotic Antimycotic (Cytiva; Marlborough, MA). Media was changed every three to four days and cells were not allowed to exceed 1×10^6 cells per mL. Prior to assay, cells were collected by centrifugation at 500 rcf for 3 minutes, resuspended in PBS and counted. Cells were diluted in PBS to a concentration of 5×10^5 live cells per mL and transferred to black 96-well plates for assay, 60 μL per well. Test articles were diluted in PBS plus 0.5% DMSO, and 20 μL was added to each assay well. Compound was allowed to pre-incubate with cells with gentle shaking at 100 rpm for 60 minutes at 37° C. in a cell culture incubator maintained at 5% CO2, after which 20 μL of 500 μM H-Gly-Phe-AFC substrate (MP Biomedicals; Solon, OH) was added to each well. Plates were returned to the incubator with shaking at 100 rpm for 30 minutes, after which fluorescence was measured at Excitation/Emission 400/505 nm. % Inhibition was calculated from RFU values compared to control cell wells that received only PBS plus 0.5% DMSO. IC50 values for each compound were calculated via the XLFit (IDBS Version 5.3.1.3) Add-On to Microsoft Excel using the four parameter fit equation y=(A+((B−A)/(1+((C/x)^D)))), which appears as equation number 205 (4 Parameter Logistic Model or Sigmoidal Dose-Response Model) in XLFit.

[2] = mouse DPP1 enzyme, Table 16, read-out: IC50, nM, Mouse
[3] = human DPP1 enzyme, Table 16, read-out: IC50, nM, Human
[4] = H-Gly-Phe-AFC substrate, Table 15, read-out: Cell IC50

Chain of active mouse DPP1 enzyme (P97821 25-134): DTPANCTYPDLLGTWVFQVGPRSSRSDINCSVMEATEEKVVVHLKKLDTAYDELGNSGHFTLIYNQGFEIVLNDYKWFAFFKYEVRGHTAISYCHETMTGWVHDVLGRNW
Chain of active mouse DPP1 enzyme (P97821 231-393): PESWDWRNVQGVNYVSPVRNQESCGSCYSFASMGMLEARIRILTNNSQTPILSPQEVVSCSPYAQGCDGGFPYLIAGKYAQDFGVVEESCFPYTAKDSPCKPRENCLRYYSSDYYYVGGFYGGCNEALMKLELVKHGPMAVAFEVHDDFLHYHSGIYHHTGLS
Chain of active mouse DPP1 enzyme (P97821 394-462): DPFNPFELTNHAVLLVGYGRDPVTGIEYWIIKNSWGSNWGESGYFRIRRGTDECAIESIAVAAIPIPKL

Compound | IC50 (active mouse DPP1 enzyme; [2]) [nM] | IC50 [1, 3] [nM] | IC50 (DPP1 in HL-60 cells; Table 16, read-out: Cell Assay) [nM] | other results
N#Cc1ccc(-c2ccc(C[C@@H](C#N)NC(=O)[C@@H]3C[C@@H]4CCC[C@@H]4N3)c(F)c2)cc1 | 6.5 | 10.1 | 3 ± 0.4 | 
CC[C@@H](/C=C/C(=O)N1CCc2ccccc21)NC(=O)C1(N)CCOCC1 [GSK-2793660, reference compound] |  |  |  | IC50 (DPP1 in HL-60 cells; [4]): 0.34 nM
Cn1c(=O)oc2ccc(-c3ccc(C[C@@H](C#N)NC(=O)[C@@H]4C[C@@H]5CCC[C@@H]5N4)c(F)c3)cc21 [drawing 1227] |  | 7.6 | 1.9 | 
N#Cc1ccc(-c2ccc(C[C@@H](C#N)NC(=O)[C@@H]3CNCCCO3)c(F)c2)cc1 [drawing 1196] | 31 | 31.4 | 3.6 | 
Cn1c(=O)oc2ccc(-c3ccc(C[C@@H](C#N)NC(=O)[C@@H]4C[C@H]5C[C@H]5N4)cc3)cc21 [IWD-002, (1R,3S,5R)—N—((S)-1-cyano-2-(4-(3-methyl-2-oxo-2,3-dihydrobenzo[d]oxazol-5-yl)phenyl)ethyl)-2-azabicyclo[3.1.0]hexane-3-carboxamide] |  |  |  | IC50 (DPP1 in HL-60 cells; [4]): 3.7 nM
Cn1c(=O)oc2ccc(-c3ccc(C[C@@H](C#N)NC(=O)[C@@H]4C[C@@H]5CCC[C@@H]5N4)c(F)c3)cc21 [drawing 1220] | 3.4 | 5.9 | 1.7 | 
[2H]C([2H])([2H])n1c(=O)oc2ccc(-c3ccc(C[C@@H](C#N)NC(=O)C4CNC4)c(F)c3)cc21 |  | 416 | 418 | 
N#C[C@H](Cc1ccc(-c2ccc3c(c2)C(=O)NC3)cc1)NC(=O)[C@@H]1CNCCCO1 |  | 428 | 59.9 | 
Cn1c(=O)oc2ccc(-c3ccc(C[C@@H](C#N)NC(=O)[C@@H]4C[C@@H]5C[C@@H]5N4)cc3)cc21 | 131 | 189 | 26 | 
Cn1c(=O)oc2ccc(-c3ccc(C[C@@H](C#N)NC(=O)[C@@H]4C[C@H]5C[C@H]5N4)cc3)cc21 [drawing 1151] | 24 | 41.1 | 3.7 | 
Cn1c(=O)oc2ccc(-c3cc(F)c(C[C@@H](C#N)NC(=O)[C@@H]4CNCCCO4)c(F)c3)cc21 |  | 42.2 | 4.9 | 
Cn1c(=O)oc2ccc(-c3ccc(C[C@@H](C#N)NC(=O)C4CNCC45CCC5)cc3)cc21 (some centres unmarked) [drawing 1188] | 2080 | 828 | 60.4 | 
N#Cc1ccc(-c2ccc(C[C@@H](C#N)NC(=O)[C@@H]3CNCCCO3)c(F)c2)cc1 [drawing 1197] | 36.7 | 49.5 | 4.2 | 
Cn1c(=O)oc2ccc(-c3ccc(C[C@@H](C#N)NC(=O)[C@@H]4C[C@@H]5COC[C@@H]5N4)cc3)cc21 [drawing 1208] | 136 | 311 | 462 | 
Cn1c(=O)oc2ccc(-c3ccc(CC(C#N)NC(=O)C4CNC4)c(F)c3)cc21 (centres unmarked) | 647 | 432 | 508 | 
[2H]C([2H])([2H])n1c(=O)oc2ccc(-c3ccc(C[C@@H](C#N)NC(=O)[C@@H]4C[C@@H]5COC[C@@H]5N4)c(F)c3)cc21 |  | 102 | 146 | 

Compound | IC50 (active mouse DPP1 enzyme; [2]) [nM] | IC50 [1, 3] [nM] | IC50 (DPP1 in HL-60 cells; Table 16, read-out: Cell Assay) [nM] | other results
[2H]C([2H])([2H])n1c(=O)oc2ccc(-c3ccc(C[C@@H](C#N)NC(=O)[C@@H]4C[C@@H]5COC[C@@H]5N4)cc3)cc21 |  | 426 | 500 | 
Cn1c(=O)oc2ccc(-c3cc(F)c(C[C@@H](C#N)NC(=O)[C@@H]4CNCCCO4)cc3F)cc21 |  | 29.6 | 3.8 | 
N#Cc1ccc(-c2ccc(C[C@@H](C#N)NC(=O)[C@@H]3C[C@H]4C[C@H]4N3)cc2)cc1 | 92.4 | 140 |  | 
Cn1c(=O)oc2ccc(-c3ccc(C[C@@H](C#N)NC(=O)C4=CS(=O)(=O)CCNC4)cc3)cc21 | > 5000 | > 5000 |  | 
Cn1c(=O)oc2ccc(-c3ccc(C[C@@H](C#N)NC(=O)C4CNC4)s3)cc21 | 4930 | > 5000 |  | 
C=C1Oc2ccc(-c3ccc(C[C@@H](C#N)NC(=O)CC4(N)CCS(=O)(=O)C4)cc3)cc2N1C (some centres unmarked) | > 5000 | > 5000 |  | 
Cn1c(=O)oc2ccc(-c3ccc(C[C@@H](C#N)NC(=O)CC4COCCN4)cc3)cc21 (some centres unmarked) | > 5000 | > 5000 |  | 
Cn1c(=O)oc2ccc(-c3ccc(C[C@@H](C#N)NC(=O)C4CCC(N)C4)cc3)cc21 (some centres unmarked) | > 5000 | > 5000 |  | 
Cn1c(=O)oc2ccc(-c3ccc(C[C@@H](C#N)NC(=O)[C@@H]4C[C@H]5COC[C@H]5N4)cc3)cc21 [IWD-005, (2S,3αR,6αS)—N—((S)-1-cyano-2-(4-(3-methyl-2-oxo-2,3-dihydrobenzo[d]oxazol-5-yl)phenyl)ethyl)hexahydro-1H-furo[3,4-b]pyrrole-2-carboxamide] |  |  |  | IC50 (active mouse DPP1 enzyme; figure legends FIG. 12 and 13, read-out: IC50, in vitro inhibition of mouse DPP1): 45.6 nM; IC50 (active mouse DPP1 enzyme; mouse DPP1 enzyme, H-Gly-Arg-AMC substrate 400 μM, Table 13, read-out: IC50): 45.6 nM; IC50 ([1]; figure legends FIG. 14 and 15, read-out: IC50, in vitro inhibition of human DPP1): 69.2 nM; IC50 ([1]; human DPP1 enzyme, H-Gly-Arg-AMC substrate 400 μM, Table 14, read-out: IC50): 69.2 nM
Cn1c(=O)oc2ccc(-c3ccc(C[C@@H](C#N)NC(=O)C4CCNC4)cc3)cc21 (some centres unmarked) | > 5000 | > 5000 |  | 
Cn1c(=O)oc2ccc(-c3ccc(C[C@@H](C#N)NC(=O)C4CNCCS(=O)(=O)C4)cc3)cc21 (some centres unmarked) | 2760 | 4820 |  | 
Cn1c(=O)oc2ccc(-c3ccc(C[C@@H](C#N)NC(=O)C4CCCCC4)cc3)cc21 | > 5000 | > 5000 |  | 
Cn1c(=O)oc2ccc(-c3ccc(C[C@@H](C#N)NC(=O)[C@@H]4C[C@H]5COC[C@H]5N4)cc3)cc21 [drawing 1154] | 45.6 | 69.2 |  | 
Cn1c(=O)oc2ccc(-c3ccc(C[C@@H](C#N)NC(=O)C4CC5CCN4CC5)cc3)cc21 (some centres unmarked) | > 5000 | > 5000 |  | 
Cn1c(=O)oc2ccc(-c3ccc(C[C@@H](C#N)NC(=O)[C@H]4C[C@@H]5COC[C@@H]5N4)cc3)cc21 | > 5000 | > 5000 |  | 
